# Data taken from patent publication US6649656B1, “Anthranilic acid derivatives” (Teijin Limited, priority 1998, dated 2003).
# Like-named read-outs stand apart in the source and are kept apart here.
# Columns and labels:
# Type in all cases: cell-based
# [1] = test system: IgG antibody production from human lymphocyte; experiment: Human in vitro IgG antibody production (same lymphocyte culture, sandwich ELISA); settings: for inhibition at 1 µM: Homo sapiens, Lymphocyte, test drug concentration 1 μM, IL-4 + IL-10 + anti-CD40 antibody, read-out: IgG production suppressing ratio (%); for IC50: IgG antibody production
# Protocol: (§1) The concentrations of IgE and IgG antibodies were measured by the following method according to the method described in the Journal of Immunology vol.146, pp.1836-1842, 1991 and the Journal of Immunology vol. 147, pp.8-13, 1991.
# (§2) Concretely, lymphocyte was separated from the peripheral venous blood of healthy person by density gradient centrifugation. The obtained lymphocyte was washed, suspended in a culture liquid (RPMI-1640 (product of Gibco Co.)+10% heat-inactivated FCS (product of Whittaker Co.)+100 μg/ml streptomycin+100 U/ml penicillin G+2 mM L-glutamine) and cultured for a week in the presence of interleukin 4 (IL-4, product of GENZYME Co.) (0.1 μg/ml), anti-CD40 antibody (antiCD40Aab, product of BIOSOURCE Co.), clone B-B20) (2 μg/ml) and interleukin 10 (IL-10, product of GENZYME Co.) (0.2 μg/ml) in the presence or absence of the compounds of the present invention described in the Tables 10 to 15 at various concentrations as test drugs.
# (§3) The culture liquid was added to the culture system, the culture was continued for additional one week, and the concentrations of IgE and IgG antibodies in the supernatant were measured by sandwich ELISA method.
# (§4) The measurement by ELISA method was carried out according to the known ELISA method by using rabbit anti-human IgE(ε) antibody (product of ICN Co.) as the primary antibody and biotin.anti-human IgE monoclonal antibody (G7-26, product of PharMingen Co.) as the secondary antibody for the measurement of IgE antibody concentration and anti-human IgG monoclonal antibody (G18-145, product of PharMingen Co.) as the primary antibody and biotin-donkey anti-human IgG antibody (H+L) (product of Jackson Co.) as the secondary antibody for the measurement of IgG antibody concentration, and using avidin-biotin-hourse radish peroxidase (ABC kit, product of Vector Lab.) as the enzyme and TMB (3,3′,5,5′-tetramethylbenzidine) microwell peroxidase substrate system (product of Kirkegaard & Perry Laboratories Inc.) as the substrate.
# (§5) The value of IC50 and the suppressing ratio (%) at the test drug concentration of 1 μM were calculated based on the concentration attained in the absence of the compound of the present invention (reference: Ueshimna, et al. American Academy of Allergy & Immunology, 1995 Annual Meeting, Program No.818).
# [2] = test system: L929 cells; experiment: Measurement of cytotoxicity using mouse tumor cell L929 (neutral red assay)
# Protocol: [Procedure] The cytotoxicity action on tumor cell was measured by neutral red assay (the method described in the Journal of Tissue Culture Methodology vol.9, p.7 (1984) and Toxicology Letters, vol.24, p.119 (1985)). Concretely, L929 cells (5×10^4 cells/ml, 10% FCS/RPMI) were added to the wells of a 96 well ELISA plate at a rate of 100 μL each and cultured for a night, and the testing compounds of respective measurement concentrations were dissolved in DMSO solution and added to the above cells. The culture was continued for 3 days, and 2.0 μL of Neutral Red was added to attain the final concentration of 0.01%. The mixture was incubated for 1 hour at 37° C., the supernatant of the cell culture product was removed and the residue was washed twice with 200 μL of PBS to remove excess Neutral Red. Thereafter, the dye taken into the cell was extracted by adding 100 μL of 50% ethanol-1% acetic acid aqueous solution and the amount of the dye was determined by measuring the absorbance at 490 nm. The cytotoxicity was determined at each concentration of the test compound taking the cytotoxicity free from the drug as 100%. […] Two sets of measurement were performed for each test under the same condition and the average value was used as the test result.
# [3] = test system: IgE antibody production from human lymphocyte; experiment: Human in vitro IgE antibody production suppressing activity (lymphocyte culture with IL-4 + IL-10 + anti-CD40 antibody, sandwich ELISA); settings: for IC50: IgE antibody production; for inhibition at 1 µM: test drug concentration 1 μM, IL-4 + IL-10 + anti-CD40 antibody, read-out: IgE production suppressing ratio (%)
# Protocol: as §1, §2, §3, §4, §5
# [4] = L929, 72 h, read-out: LD50 (μM)
# [5] = 72 h, cytotoxic activity against L929, neutral red assay, 3 days culture, read-out: LD50 (the source's name)
SMILES,inhibition at 1 µM [1],IC50 [1],"CC50 [2, 4]",IC50 [3],inhibition at 1 µM [3],"CC50 [2, 5]"
CC(C)(C)OC(=O)NC1CCC(Oc2ccc(Oc3ccc(CC(=O)Nc4ccccc4C(=O)O)cc3)cc2)CC1 (centres unmarked) [compound 133],98.2%,0.228 µM,0.33 µM,0.042 µM,100%,–
O=C(Cc1ccc(Oc2ccc(OC3CCC(NC(=O)Nc4ccc(Cl)c(Cl)c4)CC3)cc2)cc1)Nc1ccccc1C(=O)O (centres unmarked) [compound 142],93.7%,0.141 µM,–,0.034 µM,100%,0.54 µM
O=C(Cc1ccc(Oc2ccc3cc(O[C@H]4CC[C@@H](NC(=O)c5cc(Cl)cnc5Cl)CC4)ccc3c2)cc1)Nc1ccccc1C(=O)O [compound 351],71.7%,0.662 µM,–,< 0.01 µM,100%,0.31 µM
CCCCC(=O)N[C@H]1CC[C@@H](Oc2ccc3cc(Oc4ccc(C(=O)Nc5ccccc5C(=O)O)cc4)ccc3c2)CC1 [compound 370],-45.5%,> 1 µM,6.8 µM,0.027 µM,94.7%,–
